Columns and labels:
Details in all cases: 4e 0.1 µM, HL60 lysate
Tyro3/Sky = target: T1, Tyro3/Sky (Homo sapiens, UniProt Q06418); assay: PamChip tyrosine kinase microarray, Tyro3/Sky; assay type: biochemical
T1 construct: endogenous in cells; host or cells: HL60 lysate
T1 sequence (Q06418 41-890): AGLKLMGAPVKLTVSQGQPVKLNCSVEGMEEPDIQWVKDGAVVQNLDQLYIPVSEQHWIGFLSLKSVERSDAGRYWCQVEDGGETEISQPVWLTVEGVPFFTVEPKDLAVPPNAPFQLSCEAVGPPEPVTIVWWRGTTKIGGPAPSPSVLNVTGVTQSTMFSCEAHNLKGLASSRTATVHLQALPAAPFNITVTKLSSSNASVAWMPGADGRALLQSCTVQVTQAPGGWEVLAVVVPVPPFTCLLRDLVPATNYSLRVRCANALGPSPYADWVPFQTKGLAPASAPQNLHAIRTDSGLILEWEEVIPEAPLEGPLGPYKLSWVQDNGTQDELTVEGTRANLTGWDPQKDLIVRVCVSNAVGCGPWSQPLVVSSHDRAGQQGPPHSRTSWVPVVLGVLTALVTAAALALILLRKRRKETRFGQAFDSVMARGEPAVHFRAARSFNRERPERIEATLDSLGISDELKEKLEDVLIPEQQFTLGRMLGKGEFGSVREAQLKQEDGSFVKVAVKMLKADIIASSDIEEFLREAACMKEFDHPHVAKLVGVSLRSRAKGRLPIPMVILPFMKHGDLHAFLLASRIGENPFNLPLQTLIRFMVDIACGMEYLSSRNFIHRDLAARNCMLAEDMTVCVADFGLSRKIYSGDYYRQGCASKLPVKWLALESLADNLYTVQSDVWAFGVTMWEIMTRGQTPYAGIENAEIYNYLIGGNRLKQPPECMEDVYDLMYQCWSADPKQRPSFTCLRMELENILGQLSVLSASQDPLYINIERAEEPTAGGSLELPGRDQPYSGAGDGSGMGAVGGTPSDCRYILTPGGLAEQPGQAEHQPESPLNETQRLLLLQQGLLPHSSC
Protocol: (§1) The changes in kinase activities induced by treatment with 4e were monitored within the HL60 cell lines using PamGene’s (Hertogenbosch, Netherlands) PamChip® peptide microarray profiler, which quantifies the activities of 144 tyrosine kinases (YK) ([29], [30]) (Figure 7). Results are provided as a log fold change (LFC) heatmap and Mean Kinase Statistic. From the LFC it is apparent that compound 4e, at a concentration of 0.1 µM, induced sizable changes to the activity of several kinases within the cell signaling YK profile (Figure 7A).
(§2) An Upstream Kinase tool was used to generate a putative list of kinases responsible for phosphorylating the phospho-sites on the PamChip (Figure 7B) ([31]). It is an interpretation and is highly dependent on the contents of the underlying phosphorylation databases. A Kinase Score was used for ranking kinases based on their significance and specificity in terms of the set of peptides used for the corresponding kinase. Kinase Statistics indicates the overall change of the peptide set that represents the kinase. Kinase statistics value <0 indicates lower kinase activity in the compound spiked lysate and vice versa ([32], [33]). Table 5 lists the 20 most changed kinases within treated HL60 cell lysates by 0.1 μM 4e, ranked according to their Kinase Score.
(§3) The compound 4e was spiked into HL60 cell lysate at different concentrations (0.001, 0.01, 0.1, 1, 10 and 50 μM). In addition, DMSO was also spiked in HL60 lysate at low concentration (2% v/v) as control. Samples were profiled on PamGene’s Tyrosine Kinase (PTK) arrays in technical replicates, covering a total of 196 phosphorylation sites. Frozen HL60 cultured cell pellet was sent to PamGene. At PamGene, cells were lysed using a lysis buffer and proteases inhibitors cocktail. Protein concentration was measured using standard Bradford assay as per PamGene SOPs. These lysates were further used for generating the PTK activity profiles. For spiking, 4e was received as powder form and dissolved in DMSO at PamGene facility followed by storing at -20°C in small aliquots. PamGene used its in-house bioinformatics toolbox in combination with other methods to generate hypotheses of signaling pathways.

EphA5 = target: T2, EphA5 (Homo sapiens, UniProt P54756); assay: PamChip tyrosine kinase microarray, EphA5; assay type: biochemical
T2 construct: endogenous in cells; host or cells: HL60 lysate
Protocol: as §1, §2, §3

Hck = assay: PamChip tyrosine kinase microarray, Hck; assay type: biochemical, human
Protocol: as §1, §2
The two multiple-kinase tests (PamChip and Phosphokinase Profiler) provided strong evidence of very minor involvement of Src in the cellular activities of 4e. However, the question must be raised about the effect of the 4e on other SRC family kinase (SFK). To address this point, we must highlight that both R&D phosphokinase profiler and PamChip feature Yes, Fgr, Lyn, Lck and Src while Fyn, Hck, Blk and Frk activities are tested in the PamChip only. The signals of SFKs in the R&D Phosphokinase Profiler were too weak to detect in both untreated (control) and 4e-treated HL60 cells. In PamChip assay, most of SFK’s were not ranked in the top 20 affected kinases (Table 5). In addition, their Specificity Score were very low (Table 6) indicating their marginal importance to the cell killing activities of 4e. Fgr kinase which ranked 7th in the list (Table 5) was the only SFK member that seems to be affected by the compound, albeit with low Specificity Score (1.03).
The compound 4e was spiked into HL60 cell lysate at different concentrations (0.001, 0.01, 0.1, 1, 10 and 50 μM). In addition, DMSO was also spiked in HL60 lysate at low concentration (2% v/v) as control. Samples were profiled on PamGene’s Tyrosine Kinase (PTK) arrays in technical replicates, covering a total of 196 phosphorylation sites. Frozen HL60 cultured cell pellet was sent to PamGene. […] Protein concentration was measured using standard Bradford assay as per PamGene SOPs. […]

T2 sequence (P54756 25-1037): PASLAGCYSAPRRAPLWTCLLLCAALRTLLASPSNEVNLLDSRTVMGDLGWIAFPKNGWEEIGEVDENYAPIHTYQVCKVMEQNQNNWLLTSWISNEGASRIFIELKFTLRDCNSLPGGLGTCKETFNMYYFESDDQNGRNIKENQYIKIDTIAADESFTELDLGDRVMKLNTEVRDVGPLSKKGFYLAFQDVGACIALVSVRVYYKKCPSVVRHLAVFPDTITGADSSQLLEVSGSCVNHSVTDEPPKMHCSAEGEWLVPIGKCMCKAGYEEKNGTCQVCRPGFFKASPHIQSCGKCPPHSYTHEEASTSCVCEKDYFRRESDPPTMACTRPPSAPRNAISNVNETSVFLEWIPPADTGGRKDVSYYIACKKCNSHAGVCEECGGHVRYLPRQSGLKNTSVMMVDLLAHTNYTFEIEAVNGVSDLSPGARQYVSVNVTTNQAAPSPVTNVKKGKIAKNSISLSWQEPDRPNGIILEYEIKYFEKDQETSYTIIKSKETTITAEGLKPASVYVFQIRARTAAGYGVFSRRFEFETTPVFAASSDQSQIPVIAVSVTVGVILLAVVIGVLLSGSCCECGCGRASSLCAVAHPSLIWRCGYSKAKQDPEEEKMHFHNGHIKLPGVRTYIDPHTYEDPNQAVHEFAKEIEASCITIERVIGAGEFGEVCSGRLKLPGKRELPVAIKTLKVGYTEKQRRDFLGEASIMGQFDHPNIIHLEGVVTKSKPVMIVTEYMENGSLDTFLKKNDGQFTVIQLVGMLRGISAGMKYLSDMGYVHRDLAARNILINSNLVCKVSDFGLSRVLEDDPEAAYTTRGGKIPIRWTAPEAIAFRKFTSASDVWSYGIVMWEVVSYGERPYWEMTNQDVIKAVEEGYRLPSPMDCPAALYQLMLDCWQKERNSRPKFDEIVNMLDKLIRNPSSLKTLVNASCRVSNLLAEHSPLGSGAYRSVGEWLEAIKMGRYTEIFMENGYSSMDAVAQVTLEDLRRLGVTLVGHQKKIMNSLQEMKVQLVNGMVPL

## O=C(Cc1ccc(NC(=O)c2cccc(Cl)c2)cc1)NCc1ccccc1 [Compound 4e, N-(4-(2-(benzylamino)-2-oxoethyl)phenyl)-3-chlorobenzamide]
Tyro3/Sky
  Mean Final Score: 1.8204
  Mean Kinase Statistic: -0.5274
  Mean Significance Score: 1.2459
  Mean Specificity Score: 0.5745
EphA5
  Mean Final Score: 2.9453
  Mean Kinase Statistic: -0.8931
  Mean Significance Score: 1.7474
  Mean Specificity Score: 1.1979
Hck
  Mean Final Score: 1.0872
  Mean Kinase Statistic: -0.4497
  Mean Significance Score: 0.8248
  Mean Specificity Score: 0.2624

Source: paper PMC9166630, “SAR Probing of KX2-391 Provided Analogues With Juxtaposed Activity Profile Against Major Oncogenic Kinases” (Frontiers in Oncology, 2022)
